# Numbers after ± are expanded uncertainties.
# Legend:
# [1] = xn = mol fraction of the nth substance listed
structure (smiles),measurement,setting,value
C1CCNC1 [pyrrolidine] + O,surface tension liquid-gas,"[1]; 293.15 K, x1 = 0.0156",55.61 ± 1.5 mN/m
same,surface tension liquid-gas,"[1]; 293.15 K, x1 = 0.0564",46.07 ± 1.2 mN/m
same,surface tension liquid-gas,"[1]; 293.15 K, x1 = 0.1082",41.7 ± 1.1 mN/m
same,surface tension liquid-gas,"[1]; 293.15 K, x1 = 0.1792",39.7 ± 1.1 mN/m
same,surface tension liquid-gas,"[1]; 293.15 K, x1 = 0.3039",37.53 ± 1 mN/m
same,surface tension liquid-gas,"[1]; 293.15 K, x1 = 0.4212",35.97 ± 0.99 mN/m
same,surface tension liquid-gas,"[1]; 293.15 K, x1 = 0.5219",34.87 ± 0.97 mN/m
same,surface tension liquid-gas,"[1]; 293.15 K, x1 = 0.6093",33.89 ± 0.95 mN/m
same,surface tension liquid-gas,"[1]; 293.15 K, x1 = 0.6858",32.99 ± 0.93 mN/m
same,surface tension liquid-gas,"[1]; 293.15 K, x1 = 0.7844",32.1 ± 0.91 mN/m
same,surface tension liquid-gas,"[1]; 293.15 K, x1 = 0.9161",31.07 ± 0.89 mN/m
same,surface tension liquid-gas,"[1]; 293.15 K, x1 = 1",30.27 ± 0.87 mN/m
same,surface tension liquid-gas,"[1]; 298.15 K, x1 = 0.0156",55.32 ± 1.4 mN/m
same,surface tension liquid-gas,"[1]; 298.15 K, x1 = 0.0564",45.61 ± 1.2 mN/m
same,surface tension liquid-gas,"[1]; 298.15 K, x1 = 0.1082",41.19 ± 1.1 mN/m
same,surface tension liquid-gas,"[1]; 298.15 K, x1 = 0.1792",39.74 ± 1.1 mN/m
same,surface tension liquid-gas,"[1]; 298.15 K, x1 = 0.3039",37.09 ± 1 mN/m
same,surface tension liquid-gas,"[1]; 298.15 K, x1 = 0.4212",35.45 ± 0.98 mN/m
same,surface tension liquid-gas,"[1]; 298.15 K, x1 = 0.5219",34.4 ± 0.96 mN/m
same,surface tension liquid-gas,"[1]; 298.15 K, x1 = 0.6093",33.54 ± 0.94 mN/m
same,surface tension liquid-gas,"[1]; 298.15 K, x1 = 0.6858",32.59 ± 0.92 mN/m
same,surface tension liquid-gas,"[1]; 298.15 K, x1 = 0.7844",31.45 ± 0.89 mN/m
same,surface tension liquid-gas,"[1]; 298.15 K, x1 = 0.9161",30.42 ± 0.87 mN/m
same,surface tension liquid-gas,"[1]; 298.15 K, x1 = 1",29.75 ± 0.86 mN/m
same,surface tension liquid-gas,"[1]; 303.15 K, x1 = 0.0156",54.98 ± 1.4 mN/m
same,surface tension liquid-gas,"[1]; 303.15 K, x1 = 0.0564",45.21 ± 1.2 mN/m
same,surface tension liquid-gas,"[1]; 303.15 K, x1 = 0.1082",40.92 ± 1.1 mN/m
same,surface tension liquid-gas,"[1]; 303.15 K, x1 = 0.1792",39 ± 1.1 mN/m
same,surface tension liquid-gas,"[1]; 303.15 K, x1 = 0.3039",36.69 ± 1 mN/m
same,surface tension liquid-gas,"[1]; 303.15 K, x1 = 0.4212",35.11 ± 0.97 mN/m
same,surface tension liquid-gas,"[1]; 303.15 K, x1 = 0.5219",33.99 ± 0.95 mN/m
same,surface tension liquid-gas,"[1]; 303.15 K, x1 = 0.6093",33.07 ± 0.93 mN/m
same,surface tension liquid-gas,"[1]; 303.15 K, x1 = 0.6858",32.39 ± 0.92 mN/m
same,surface tension liquid-gas,"[1]; 303.15 K, x1 = 0.7844",31.3 ± 0.89 mN/m
same,surface tension liquid-gas,"[1]; 303.15 K, x1 = 0.9161",30.13 ± 0.87 mN/m
same,surface tension liquid-gas,"[1]; 303.15 K, x1 = 1",29.02 ± 0.84 mN/m
same,surface tension liquid-gas,"[1]; 313.15 K, x1 = 0.0156",54.1 ± 1.4 mN/m
same,surface tension liquid-gas,"[1]; 313.15 K, x1 = 0.0564",44.76 ± 1.2 mN/m
same,surface tension liquid-gas,"[1]; 313.15 K, x1 = 0.1082",40.19 ± 1.1 mN/m
same,surface tension liquid-gas,"[1]; 313.15 K, x1 = 0.1792",38.01 ± 1 mN/m
same,surface tension liquid-gas,"[1]; 313.15 K, x1 = 0.3039",35.68 ± 0.99 mN/m
same,surface tension liquid-gas,"[1]; 313.15 K, x1 = 0.4212",34.44 ± 0.96 mN/m
same,surface tension liquid-gas,"[1]; 313.15 K, x1 = 0.5219",32.97 ± 0.93 mN/m
same,surface tension liquid-gas,"[1]; 313.15 K, x1 = 0.6093",31.95 ± 0.9 mN/m
same,surface tension liquid-gas,"[1]; 313.15 K, x1 = 0.6858",31.11 ± 0.89 mN/m
same,surface tension liquid-gas,"[1]; 313.15 K, x1 = 0.7844",30.4 ± 0.87 mN/m
same,surface tension liquid-gas,"[1]; 313.15 K, x1 = 0.9161",29.02 ± 0.84 mN/m
same,surface tension liquid-gas,"[1]; 313.15 K, x1 = 1",27.87 ± 0.81 mN/m
same,surface tension liquid-gas,"[1]; 323.15 K, x1 = 0.0156",53.26 ± 1.4 mN/m
same,surface tension liquid-gas,"[1]; 323.15 K, x1 = 0.0564",43.89 ± 1.2 mN/m
same,surface tension liquid-gas,"[1]; 323.15 K, x1 = 0.1082",39.17 ± 1.1 mN/m
same,surface tension liquid-gas,"[1]; 323.15 K, x1 = 0.1792",37.3 ± 1 mN/m
same,surface tension liquid-gas,"[1]; 323.15 K, x1 = 0.3039",34.74 ± 0.96 mN/m
same,surface tension liquid-gas,"[1]; 323.15 K, x1 = 0.4212",33.15 ± 0.93 mN/m
same,surface tension liquid-gas,"[1]; 323.15 K, x1 = 0.5219",32.07 ± 0.9 mN/m
same,surface tension liquid-gas,"[1]; 323.15 K, x1 = 0.6093",31.05 ± 0.88 mN/m
same,surface tension liquid-gas,"[1]; 323.15 K, x1 = 0.6858",30.25 ± 0.86 mN/m
same,surface tension liquid-gas,"[1]; 323.15 K, x1 = 0.7844",29.2 ± 0.84 mN/m
same,surface tension liquid-gas,"[1]; 323.15 K, x1 = 0.9161",27.83 ± 0.81 mN/m
same,surface tension liquid-gas,"[1]; 323.15 K, x1 = 1",26.75 ± 0.79 mN/m
O [water] + C1CCNCC1,surface tension liquid-gas,"[1]; 293.15 K, x2 = 0",72.7 ± 1.8 mN/m
same,surface tension liquid-gas,"[1]; 298.15 K, x2 = 0",72.05 ± 1.8 mN/m
same,surface tension liquid-gas,"[1]; 303.15 K, x2 = 0",71.28 ± 1.8 mN/m
same,surface tension liquid-gas,"[1]; 313.15 K, x2 = 0",69.32 ± 1.8 mN/m
same,surface tension liquid-gas,"[1]; 323.15 K, x2 = 0",67.88 ± 1.7 mN/m
C1CCNC1 [pyrrolidine],surface tension liquid-gas,293.15 K,30.27 ± 0.87 mN/m
same,surface tension liquid-gas,298.15 K,29.75 ± 0.86 mN/m
same,surface tension liquid-gas,303.15 K,29.02 ± 0.84 mN/m
same,surface tension liquid-gas,313.15 K,27.87 ± 0.81 mN/m
same,surface tension liquid-gas,323.15 K,26.75 ± 0.79 mN/m
O [water] + C1CCNC1,surface tension liquid-gas,"[1]; 293.15 K, x2 = 0",72.7 ± 1.8 mN/m
same,surface tension liquid-gas,"[1]; 298.15 K, x2 = 0",72.05 ± 1.8 mN/m
same,surface tension liquid-gas,"[1]; 303.15 K, x2 = 0",71.28 ± 1.8 mN/m
same,surface tension liquid-gas,"[1]; 313.15 K, x2 = 0",69.32 ± 1.8 mN/m
same,surface tension liquid-gas,"[1]; 323.15 K, x2 = 0",67.88 ± 1.7 mN/m

# Reference: the NIST ThermoML archive (doi:10.1021/je049888n)
